Laboratory results as given in US8617542B2, “DispersinB™, 5-fluorouracil, deoxyribonuclease I and proteinase K-based antibiofilm compositions and uses thereof” (Kane Biotech Inc., priority 2008, dated 2013).
In brackets after ≈: the same amount, converted by molar mass.

Experiments:
Format in all cases: cell-based
Pseudomonas aeruginosa = experiment: MIC in 96 well microtiter plate, P. aeruginosa; settings: TSB, 5×10^5 CFU/mL, 37° C.
Experimental: (§1) The antimicrobial activity of 5-fluorouracil (FU) was studied by determining minimal inhibitory concentrations (MIC) in a 96 well microtiter plate. Briefly, serial two-fold dilutions of FU were performed in TSB. A suspension of each microorganism from Table 1 was added to wells at a concentration of 5×10^5 CFU/mL, and the microtiter plates were incubated at 37° C. The MIC was defined, as the lowest concentration of an antimicrobial required for total inhibition of a test microorganism at 37° C. 5-Fluorouracil was active against all the pathogens tested (Table 1).

[1] = test system: cystic fibrosis-associated pathogens; experiment: antimicrobial activity (MIC) against all pathogens tested; settings: pathogens of Table 1
Experimental: as §1

Burkholderia cepacia = experiment: MIC in 96 well microtiter plate, B. cepacia; settings: TSB, 5×10^5 CFU/mL, 37° C.
Experimental: as §1

Staphylococcus aureus = experiment: MIC in 96 well microtiter plate, S. aureus; settings: TSB, 5×10^5 CFU/mL, 37° C.
Experimental: as §1

O=c1[nH]cc(F)c(=O)[nH]1 [5-Fluorouracil, 5-fluoro-2,4(1H,3H)-Pyrimidinedione]
MIC (Pseudomonas aeruginosa): 31.2 mg/L (≈ 240 µM)
antimicrobial activity against all the pathogens tested [1]: active
MIC (Burkholderia cepacia): 62.5 mg/L (≈ 480 µM)
MIC (Staphylococcus aureus): 25 mg/L (≈ 192 µM)
